According to ChEMBL document CHEMBL3507680, “University of Dundee, Gates Library screen for HepG2 cell viability”:

assay: Human HepG2 cell viability assay in 384 well format; type: toxicity, cell-based; design: dose 125 nL, time 70.5 hour; concentration not given beside the values; settings: HepG2 cells, read-out: Inhibition

In order of rising cytotoxicity at 70.5 h:
1. Cc1oncc1C(=O)N1CCC2(CC1)CC(c1ccccc1)C(=O)N2C (configuration not stated)  -19%
2. Cc1nc2c(c(NCC(c3cccnc3)N3CCOCC3)n1)CCNC2 (configuration not stated)  -15.5%
3. Cc1cc(NC(=O)C2CCCN(C(=O)NCC(C)C)C2)ccn1 (configuration not stated)  -14.5%
4. CN(C)CCN1CCN(C(=O)c2ccn(C)c(=O)c2)CC1  -11.6%
5. Cc1cc(C(F)(F)F)cc(=O)n1CCCn1cnnn1  -11.2%
6. CN(Cc1ccoc1)C(=O)CN1C(=O)OC(C)(C)C1=O  -8.72%
7. Cc1ccc(CN2C[C@H]3C[C@H](C(=O)NCc4cccnc4)[C@@H](C2)O3)o1  -8.69%
8. O=C(NCCCNc1ccccn1)NCC1CCS(=O)(=O)C1 (configuration not stated)  -8.26%
9. CCc1ncncc1C(=O)N1CCCN(Cc2ccccc2C)CC1  -8.2%
10. O=C(NCCc1cnccn1)C1(N2CCCCC2)Cc2ccccc2C1  -8.18%
11. CN(C)C(=O)CN1CCO[C@H]2CN(Cc3cccc(F)c3)C[C@H]21  -8.07%
12. CSc1cccc(CN(C)C(=O)c2ccc(C3CCCNC3)cc2)c1 (configuration not stated)  -7.25%
13. O=C(Nc1cccnc1)[C@H]1C[C@@H]2CN(Cc3ccc(F)cc3)C[C@H]1O2  -7.11%
14. O=C(NC1CCC(C(=O)N2CCSCC2)CC1)N1CCC1 (configuration not stated)  -6.98%
15. Cc1ccc(CN2CCC3(CC2)CN(C(=O)c2cnccn2)CCO3)o1  -6.5%
16. c1nc(N2CCCC2)cnc1C1CCNCC1  -6.46%
17. Cn1ccc(C(=O)N2CCN(CC(O)C(C)(C)C)CC2)cc1=O (configuration not stated)  -5.62%
18. COc1cc(OC)nc(N2CCC3(CC2)OCCCC3O)n1 (configuration not stated)  -5.5%
19. O=C(N1CCOCC1)N1CCOC[C@H](Oc2ccc(C(F)(F)F)cc2)C1  -5.44%
20. Cc1nc2n(n1)CC(NCc1cc(Cl)c3c(c1)OCCO3)CC2 (configuration not stated)  -4.92%
21. CC(C)c1nccn1C1CCCN(C(=O)c2ccn(C)c(=O)c2)C1 (configuration not stated)  -4.13%
22. COc1ccccc1[C@@H]1CN(Cc2csc(C(C)=O)c2)C[C@H]1C(=O)O  -3.94%
23. Cc1cc(C)nc(N2CCC(c3c(C(N)=O)sc4ccccc34)C2)n1 (configuration not stated)  -3.24%
24. Cc1n[nH]c(C)c1Sc1ccccc1NC(=O)N1CCOCC1  -2.37%
25. COCC(=O)NC(Cc1cc(N(C)C)nc(C2CC2)n1)c1ccccc1 (configuration not stated)  -2.08%
26. Cn1ccnc1-c1ccc(NCc2cn3c(n2)SCC3)nn1  -1.93%
27. CC(=O)N1CCC(C)(c2cc(C(=O)NCC3CC3)nc(C)n2)CC1  -1.84%
28. CN1CCOC(CNCc2csc(C3CCCC3)n2)C1 (configuration not stated)  -1.7%
29. CC(C)CCc1noc(C[S+]([O-])CC(=O)NCc2ccccc2)n1 (configuration not stated)  -1.48%
30. COc1cc(CN(Cc2ccccn2)CC(C)C)cc2c1OCO2  -0.968%
31. CC1CN(c2ncnc3sccc23)CCN1c1nccs1 (configuration not stated)  -0.696%
32. O=C(Nc1cccn(Cc2ccc(F)cc2)c1=O)c1csnn1  -0.164%
33. CCc1nnc2n1CCN(C(=O)c1cc3cc(F)ccc3[nH]1)C2  0.76%
34. Cc1cc(C(=O)N2CCc3c(CN(C)C(C)C)n[nH]c3C2)[nH]n1  0.919%
35. COC(=O)N1CCC(NC2CCSCC2)C1 (configuration not stated)  0.96%
36. COCc1csc(NC(=O)NCc2ccc(C)s2)n1  1.09%
37. Cc1nn(CC(C)C)c(N(C)C)c1CNCc1ccc(CO)c(F)c1  1.46%
38. NC(=O)CCOc1ccc(NC(=O)c2ccccc2OC(F)F)cc1  3.32%
39. Fc1cccnc1N1CCC(NCc2cccc3cn[nH]c23)C1 (configuration not stated)  3.51%
40. Cc1ccc(CN2C[C@H](OCC3CCN(C)CC3)[C@H]3COC[C@H]32)o1  4.22%
41. CC(C)(C)NC(=O)CN1CCCN(Cc2cc(C#N)ccc2F)CC1  4.54%
42. CN1CCOC(CNCC(=O)NCCC2=CCCCC2)C1 (configuration not stated)  4.71%
43. CCCS(=O)(=O)N1C[C@@H]2CN(Cc3ccoc3)CCO[C@@H]2C1  6.66%
44. O=C(C1CCOc2ccccc2C1)N1Cc2cnn(CCO)c2C1 (configuration not stated)  9.23%
45. CCCc1nc(CN(CC)Cc2ccc(S(C)(=O)=O)cc2)no1  10.1%
46. CCc1cc(N2CCSCC2)n2nc(C)c(C)c2n1  12.2%
47. CO[C@@H]1CCN(Cc2nccn2C)[C@H]1Cc1cccnc1  12.4%
48. NCC1(c2cccc(C(F)(F)F)c2)CC1  13.4%
49. Cc1cc(C(=O)N(C)Cc2ccccc2OCC(C)C)cc(=O)[nH]1  15.6%
50. COCC1CC2(CCN(C(=O)c3ccccc3C)CC2)CN1C(C)C (configuration not stated)  19.7%
51. Cn1ccc(CN2CCC(OCc3ccccc3)CC2)cc1=O  21.5%
52. O=S(=O)(Nc1ccc(Oc2ccc3c(c2)OCO3)cc1)N1CCCCC1  23%
53. O=C1N(c2ccc(Br)cc2)Cc2n[nH]c(=O)n21  23.8%
54. Cc1nn(C)c2nc(C(C)C)cc(C(=O)Nc3n[nH]c(C4CC4)n3)c12  27%
55. Cc1ncsc1-c1ccn(CC(=O)Nc2cnn(C)n2)n1  45.6%
56. COC(=O)c1ccc(C(=O)NCC(O)c2cccn2C)cc1 (configuration not stated)  48.7%
57. Cc1ccc(CN2Cc3ccccc3O[C@]3(CC[C@H](CO)CC3)C2)o1  52%
